# Experiments:
# [1] = molecular target: Phosphatidylinositol 4,5-bisphosphate 3-kinase catalytic subunit beta isoform (Homo sapiens) (UniProt P42338); settings: Compound concentration 1000.0 nM
# [2] = molecular target: Serine/threonine-protein kinase 32B (Homo sapiens) (UniProt Q9NY57); settings: Compound concentration 1000.0 nM
# [3] = molecular target: Insulin receptor-related protein (Homo sapiens) (UniProt P14616); settings: Compound concentration 1000.0 nM
# [4] = molecular target: Insulin-like growth factor 1 receptor (Homo sapiens) (UniProt P08069); settings: Compound concentration 1000.0 nM
# Sequence of Insulin-like growth factor 1 receptor (Homo sapiens) (P08069 31-736 limits assumed): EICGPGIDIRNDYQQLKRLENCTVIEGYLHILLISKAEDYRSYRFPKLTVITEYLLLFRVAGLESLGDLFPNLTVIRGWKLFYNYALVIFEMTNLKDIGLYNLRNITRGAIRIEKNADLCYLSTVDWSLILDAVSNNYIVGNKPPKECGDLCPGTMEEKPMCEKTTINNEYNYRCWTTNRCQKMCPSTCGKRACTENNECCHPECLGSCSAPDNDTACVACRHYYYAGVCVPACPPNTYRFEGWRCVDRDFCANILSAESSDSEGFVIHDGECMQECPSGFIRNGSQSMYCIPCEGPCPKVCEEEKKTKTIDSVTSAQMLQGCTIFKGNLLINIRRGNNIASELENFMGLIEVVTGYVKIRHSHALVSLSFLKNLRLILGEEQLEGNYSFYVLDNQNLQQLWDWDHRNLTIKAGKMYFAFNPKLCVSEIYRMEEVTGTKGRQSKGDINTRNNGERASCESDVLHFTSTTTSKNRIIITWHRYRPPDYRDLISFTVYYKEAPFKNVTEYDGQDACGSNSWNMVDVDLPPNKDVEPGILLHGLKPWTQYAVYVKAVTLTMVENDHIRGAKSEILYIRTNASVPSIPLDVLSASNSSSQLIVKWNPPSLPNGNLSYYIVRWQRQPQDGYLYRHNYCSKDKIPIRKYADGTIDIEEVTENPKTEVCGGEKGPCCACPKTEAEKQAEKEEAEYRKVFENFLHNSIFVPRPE
# Sequence of Insulin-like growth factor 1 receptor (Homo sapiens) (P08069 741-1367 limits assumed): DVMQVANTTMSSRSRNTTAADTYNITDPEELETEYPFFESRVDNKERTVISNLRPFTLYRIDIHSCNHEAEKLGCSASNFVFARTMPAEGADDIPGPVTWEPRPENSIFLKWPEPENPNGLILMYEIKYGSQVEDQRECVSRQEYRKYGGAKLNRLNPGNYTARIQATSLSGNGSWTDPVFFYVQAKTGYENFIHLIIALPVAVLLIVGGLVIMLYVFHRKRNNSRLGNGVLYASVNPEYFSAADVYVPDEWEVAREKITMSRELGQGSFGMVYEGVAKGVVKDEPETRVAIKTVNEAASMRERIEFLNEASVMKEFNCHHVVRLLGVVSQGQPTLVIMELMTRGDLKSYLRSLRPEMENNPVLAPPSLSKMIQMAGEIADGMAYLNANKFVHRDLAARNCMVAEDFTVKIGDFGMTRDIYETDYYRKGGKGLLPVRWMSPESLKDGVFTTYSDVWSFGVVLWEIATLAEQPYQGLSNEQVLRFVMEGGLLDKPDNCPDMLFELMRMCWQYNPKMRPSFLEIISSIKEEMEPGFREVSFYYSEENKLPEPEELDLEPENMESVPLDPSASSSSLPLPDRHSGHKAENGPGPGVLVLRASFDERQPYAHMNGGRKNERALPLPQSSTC
# [5] = molecular target: T1, D(4) dopamine receptor (Homo sapiens) (UniProt P21917); settings: Compound concentration 10.0 uM
# T1 sequence (whole entry): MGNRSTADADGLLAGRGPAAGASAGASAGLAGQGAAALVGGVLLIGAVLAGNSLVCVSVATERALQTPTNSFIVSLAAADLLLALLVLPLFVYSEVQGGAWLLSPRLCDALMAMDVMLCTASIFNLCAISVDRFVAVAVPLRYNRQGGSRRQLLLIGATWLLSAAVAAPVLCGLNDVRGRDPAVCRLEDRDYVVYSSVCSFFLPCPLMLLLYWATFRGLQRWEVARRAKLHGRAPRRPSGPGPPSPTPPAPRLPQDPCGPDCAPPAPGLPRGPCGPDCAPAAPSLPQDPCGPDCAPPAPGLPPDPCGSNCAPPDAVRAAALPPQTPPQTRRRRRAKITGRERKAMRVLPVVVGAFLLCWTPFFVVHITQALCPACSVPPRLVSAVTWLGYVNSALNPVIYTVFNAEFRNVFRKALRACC
# [6] = molecular target: Microtubule-associated serine/threonine-protein kinase 1 (Homo sapiens) (UniProt Q9Y2H9); settings: Compound concentration 1000.0 nM
# [7] = molecular target: Serine/threonine-protein kinase Chk1 (Homo sapiens) (UniProt O14757); settings: Compound concentration 1000.0 nM
# [8] = molecular target: Serine/threonine-protein kinase Sgk1 (Homo sapiens) (UniProt O00141); settings: Compound concentration 1000.0 nM
# [9] = test system: eIF-2-alpha kinase GCN2 (Homo sapiens), Q9P2K8 [S808G]; settings: Compound concentration 1000.0 nM
# [10] = molecular target: Serine/threonine-protein kinase 38-like (Homo sapiens) (UniProt Q9Y2H1); settings: Compound concentration 1000.0 nM
# [11] = molecular target: Serine/threonine-protein kinase Nek2 (Homo sapiens) (UniProt P51955); settings: Compound concentration 1000.0 nM
# [12] = molecular target: Serine/threonine-protein kinase ULK2 (Homo sapiens) (UniProt Q8IYT8); settings: Compound concentration 1000.0 nM
# [13] = molecular target: Mitogen-activated protein kinase kinase kinase kinase 1 (Homo sapiens) (UniProt Q92918); settings: Compound concentration 1000.0 nM
# [14] = molecular target: Serine/threonine-protein kinase SIK1 (Homo sapiens) (UniProt P57059); settings: Compound concentration 1000.0 nM
# [15] = molecular target: Phosphatidylinositol 4,5-bisphosphate 3-kinase catalytic subunit gamma isoform (Homo sapiens) (UniProt P48736); settings: Compound concentration 1000.0 nM
# [16] = molecular target: Cyclin-G-associated kinase (Homo sapiens) (UniProt O14976); settings: Compound concentration 1000.0 nM
# [17] = molecular target: Aurora kinase A (Homo sapiens) (UniProt O14965); settings: Compound concentration 1000.0 nM
# [18] = molecular target: Serine/threonine-protein kinase PLK3 (Homo sapiens) (UniProt Q9H4B4); settings: Compound concentration 1000.0 nM
# [19] = molecular target: Death-associated protein kinase 1 (Homo sapiens) (UniProt P53355); settings: Compound concentration 1000.0 nM
# [20] = molecular target: Mitogen-activated protein kinase kinase kinase 7 (Homo sapiens) (UniProt O43318); settings: Compound concentration 1000.0 nM
# [21] = molecular target: Ephrin type-A receptor 3 (Homo sapiens) (UniProt P29320); settings: Compound concentration 1000.0 nM
# [22] = test system: Receptor-type tyrosine-protein kinase FLT3 (Homo sapiens), P36888 [UNDEFINED MUTATION]; settings: Compound concentration 1000.0 nM
# [23] = molecular target: Homeodomain-interacting protein kinase 1 (Homo sapiens) (UniProt Q86Z02); settings: Compound concentration 1000.0 nM
# [24] = molecular target: Cyclin-dependent kinase 15 (Homo sapiens) (UniProt Q96Q40); settings: Compound concentration 1000.0 nM
# [25] = test system: ALK tyrosine kinase receptor (Homo sapiens), Q9UM73 [L1196M]; settings: Compound concentration 1000.0 nM
# [26] = molecular target: Mitogen-activated protein kinase 3 (Homo sapiens) (UniProt P27361); settings: Compound concentration 1000.0 nM
# [27] = molecular target: Cyclin-dependent kinase 4 (Homo sapiens) (UniProt P11802); settings: Compound concentration 1000.0 nM
# [28] = molecular target: Ribosomal protein S6 kinase alpha-3 (Homo sapiens) (UniProt P51812); settings: Compound concentration 1000.0 nM
# Sequence of Ribosomal protein S6 kinase alpha-3 (Homo sapiens) (P51812 whole entry): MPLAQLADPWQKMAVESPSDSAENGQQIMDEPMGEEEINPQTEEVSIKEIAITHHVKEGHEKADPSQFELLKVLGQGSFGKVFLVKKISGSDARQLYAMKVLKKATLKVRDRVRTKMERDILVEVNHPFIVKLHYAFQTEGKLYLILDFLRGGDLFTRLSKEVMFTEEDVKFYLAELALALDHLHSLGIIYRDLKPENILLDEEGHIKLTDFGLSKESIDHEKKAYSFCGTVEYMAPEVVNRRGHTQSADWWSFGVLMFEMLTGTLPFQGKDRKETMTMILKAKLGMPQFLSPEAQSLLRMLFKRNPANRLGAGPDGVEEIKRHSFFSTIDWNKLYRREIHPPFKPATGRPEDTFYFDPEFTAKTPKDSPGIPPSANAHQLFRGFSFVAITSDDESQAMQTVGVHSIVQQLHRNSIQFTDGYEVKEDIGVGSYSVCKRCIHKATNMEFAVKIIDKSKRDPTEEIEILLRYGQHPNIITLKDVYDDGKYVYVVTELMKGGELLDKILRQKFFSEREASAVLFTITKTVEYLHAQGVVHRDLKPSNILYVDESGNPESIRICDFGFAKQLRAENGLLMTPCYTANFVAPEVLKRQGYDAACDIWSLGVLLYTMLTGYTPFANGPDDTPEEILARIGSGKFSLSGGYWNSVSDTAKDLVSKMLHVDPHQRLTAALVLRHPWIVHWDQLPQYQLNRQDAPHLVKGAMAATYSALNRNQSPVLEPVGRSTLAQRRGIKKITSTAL
# [29] = molecular target: Serine/threonine-protein kinase Nek5 (Homo sapiens) (UniProt Q6P3R8); settings: Compound concentration 1000.0 nM
# [30] = molecular target: Serine/threonine-protein kinase TAO2 (Homo sapiens) (UniProt Q9UL54); settings: Compound concentration 1000.0 nM
# [31] = molecular target: Receptor tyrosine-protein kinase erbB-3 (Homo sapiens) (UniProt P21860); settings: Compound concentration 1000.0 nM
# [32] = molecular target: Cyclin-dependent kinase 16 (Homo sapiens) (UniProt Q00536); settings: Compound concentration 1000.0 nM
# Sequence of Cyclin-dependent kinase 16 (Homo sapiens) (Q00536 whole entry): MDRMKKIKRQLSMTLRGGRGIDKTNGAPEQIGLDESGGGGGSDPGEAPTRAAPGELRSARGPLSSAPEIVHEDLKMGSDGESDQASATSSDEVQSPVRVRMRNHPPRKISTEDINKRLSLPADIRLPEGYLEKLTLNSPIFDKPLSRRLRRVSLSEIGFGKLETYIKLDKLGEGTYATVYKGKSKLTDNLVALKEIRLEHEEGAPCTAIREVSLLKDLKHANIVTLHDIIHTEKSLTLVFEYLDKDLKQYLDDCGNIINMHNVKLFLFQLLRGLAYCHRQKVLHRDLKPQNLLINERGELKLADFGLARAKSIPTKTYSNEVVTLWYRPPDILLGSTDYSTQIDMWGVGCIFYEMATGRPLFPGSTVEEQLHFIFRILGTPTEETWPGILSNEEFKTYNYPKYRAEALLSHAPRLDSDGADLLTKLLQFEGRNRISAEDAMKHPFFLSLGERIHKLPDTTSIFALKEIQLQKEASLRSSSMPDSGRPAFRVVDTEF
# [33] = molecular target: MAP/microtubule affinity-regulating kinase 4 (Homo sapiens) (UniProt Q96L34); settings: Compound concentration 1000.0 nM
# [34] = molecular target: Focal adhesion kinase 1 (Homo sapiens) (UniProt Q05397); settings: Compound concentration 1000.0 nM
# [35] = molecular target: Tyrosine-protein kinase ABL2 (Homo sapiens) (UniProt P42684); settings: Compound concentration 1000.0 nM
# [36] = molecular target: Serine/threonine-protein kinase ICK (Homo sapiens) (UniProt Q9UPZ9); settings: Compound concentration 1000.0 nM
# [37] = molecular target: Dual specificity tyrosine-phosphorylation-regulated kinase 2 (Homo sapiens) (UniProt Q92630); settings: Compound concentration 1000.0 nM
# [38] = molecular target: Protein-tyrosine kinase 2-beta (Homo sapiens) (UniProt Q14289); settings: Compound concentration 1000.0 nM
# Sequence of Protein-tyrosine kinase 2-beta (Homo sapiens) (Q14289 whole entry, looked up): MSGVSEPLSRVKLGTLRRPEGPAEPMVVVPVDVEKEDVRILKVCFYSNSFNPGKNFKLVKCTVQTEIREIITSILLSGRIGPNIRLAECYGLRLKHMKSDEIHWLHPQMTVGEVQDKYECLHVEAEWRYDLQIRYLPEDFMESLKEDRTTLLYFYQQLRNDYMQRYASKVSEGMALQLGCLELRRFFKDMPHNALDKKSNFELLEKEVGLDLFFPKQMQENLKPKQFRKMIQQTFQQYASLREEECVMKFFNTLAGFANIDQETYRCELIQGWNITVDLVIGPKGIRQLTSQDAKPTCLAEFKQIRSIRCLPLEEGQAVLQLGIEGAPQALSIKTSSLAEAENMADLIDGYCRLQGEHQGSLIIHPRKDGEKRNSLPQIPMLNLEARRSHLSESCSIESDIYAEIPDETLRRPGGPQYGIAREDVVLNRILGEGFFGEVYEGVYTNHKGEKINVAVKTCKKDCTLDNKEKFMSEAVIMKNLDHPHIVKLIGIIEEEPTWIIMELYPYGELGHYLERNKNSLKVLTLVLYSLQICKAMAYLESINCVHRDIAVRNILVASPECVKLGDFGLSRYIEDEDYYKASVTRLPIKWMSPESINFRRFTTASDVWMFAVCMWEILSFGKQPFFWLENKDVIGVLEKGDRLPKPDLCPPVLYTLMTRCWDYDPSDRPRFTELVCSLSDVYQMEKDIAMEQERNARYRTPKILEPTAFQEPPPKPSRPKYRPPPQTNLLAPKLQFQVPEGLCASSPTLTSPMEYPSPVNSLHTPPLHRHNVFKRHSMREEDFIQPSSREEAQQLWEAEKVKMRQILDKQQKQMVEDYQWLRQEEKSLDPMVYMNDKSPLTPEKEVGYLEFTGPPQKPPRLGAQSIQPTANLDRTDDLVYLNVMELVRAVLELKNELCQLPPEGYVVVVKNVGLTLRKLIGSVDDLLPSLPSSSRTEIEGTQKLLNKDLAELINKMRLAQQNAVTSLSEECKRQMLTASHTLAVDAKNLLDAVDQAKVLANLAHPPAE
# [39] = molecular target: Dual specificity mitogen-activated protein kinase kinase 2 (Homo sapiens) (UniProt P36507); settings: Compound concentration 1000.0 nM
# Sequence of Insulin receptor-related protein (Homo sapiens) (P14616 27-742 limits assumed): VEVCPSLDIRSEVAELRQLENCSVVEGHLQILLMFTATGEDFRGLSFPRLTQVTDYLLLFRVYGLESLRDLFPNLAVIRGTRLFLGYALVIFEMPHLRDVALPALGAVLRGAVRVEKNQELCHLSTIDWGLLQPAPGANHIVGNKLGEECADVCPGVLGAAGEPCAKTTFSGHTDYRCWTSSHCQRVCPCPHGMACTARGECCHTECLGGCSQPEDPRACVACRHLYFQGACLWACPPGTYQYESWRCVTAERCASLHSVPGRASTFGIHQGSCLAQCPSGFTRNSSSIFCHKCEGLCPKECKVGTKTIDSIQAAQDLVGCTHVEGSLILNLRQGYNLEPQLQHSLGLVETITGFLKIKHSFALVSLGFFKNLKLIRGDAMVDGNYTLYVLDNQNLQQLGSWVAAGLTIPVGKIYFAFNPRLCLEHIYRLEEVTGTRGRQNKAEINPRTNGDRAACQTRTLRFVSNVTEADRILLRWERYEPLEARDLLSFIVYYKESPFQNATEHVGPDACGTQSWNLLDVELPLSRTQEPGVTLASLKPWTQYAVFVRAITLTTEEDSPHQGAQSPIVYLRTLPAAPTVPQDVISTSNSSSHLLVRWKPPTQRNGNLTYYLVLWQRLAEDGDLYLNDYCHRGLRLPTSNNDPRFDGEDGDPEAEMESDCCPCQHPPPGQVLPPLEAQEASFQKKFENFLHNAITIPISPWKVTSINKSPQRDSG
# Sequence of Insulin receptor-related protein (Homo sapiens) (P14616 747-1297 limits assumed): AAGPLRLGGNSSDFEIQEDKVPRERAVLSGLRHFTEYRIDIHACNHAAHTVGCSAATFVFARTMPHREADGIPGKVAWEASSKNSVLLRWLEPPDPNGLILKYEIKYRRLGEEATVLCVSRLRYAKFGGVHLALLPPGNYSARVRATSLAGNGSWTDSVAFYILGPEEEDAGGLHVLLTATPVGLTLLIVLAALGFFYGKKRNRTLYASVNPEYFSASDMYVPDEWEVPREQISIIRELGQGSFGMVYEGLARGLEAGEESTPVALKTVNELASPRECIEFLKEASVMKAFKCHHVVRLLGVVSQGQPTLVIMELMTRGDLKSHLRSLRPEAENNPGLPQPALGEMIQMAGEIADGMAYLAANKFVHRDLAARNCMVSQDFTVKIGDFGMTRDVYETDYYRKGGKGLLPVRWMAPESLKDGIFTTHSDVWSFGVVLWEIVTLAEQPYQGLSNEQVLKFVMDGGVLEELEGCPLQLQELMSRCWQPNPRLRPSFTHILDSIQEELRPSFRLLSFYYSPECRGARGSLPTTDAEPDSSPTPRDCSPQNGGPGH
Compound,residual activity [1],residual activity [2],residual activity [3],residual activity [4],inhibition [5],residual activity [6],residual activity [7],residual activity [8],residual activity [9],residual activity [10],residual activity [11],residual activity [12],residual activity [13],residual activity [14],residual activity [15],residual activity [16],residual activity [17],residual activity [18],residual activity [19],residual activity [20],also measured
CCS(=O)(=O)c1cc2cc(C[C@@](O)(CC(C)(C)c3ccc(F)cc3C(N)=O)C(F)(F)F)[nH]c2cn1,87%,100%,64%,100%,5.32%,100%,100%,79%,94%,38%,94%,85%,100%,100%,78%,71%,88%,99%,0%,92%,residual activity [21]: 85%; residual activity [22]: 78%; residual activity [23]: 90%; residual activity [24]: 59%; residual activity [25]: 100%; residual activity [26]: 98%; residual activity [27]: 100%; residual activity [28]: 100%; residual activity [29]: 100%; residual activity [30]: 76%; residual activity [31]: 100%; residual activity [32]: 78%; residual activity [33]: 100%; residual activity [34]: 100%; residual activity [35]: 88%; residual activity [36]: 97%; residual activity [37]: 83%; residual activity [38]: 100%; residual activity [39]: 67%
CCS(=O)(=O)c1cc2cc(C[C@](O)(CC(C)(C)c3ccc(F)cc3C(N)=O)C(F)(F)F)[nH]c2cn1,98%,94%,100%,100%,-7.41%,100%,97%,100%,89%,45%,100%,100%,100%,100%,80%,100%,88%,93%,92%,100%,residual activity [21]: 95%; residual activity [22]: 91%; residual activity [23]: 94%; residual activity [24]: 88%; residual activity [25]: 87%; residual activity [26]: 93%; residual activity [27]: 97%; residual activity [28]: 100%; residual activity [29]: 100%; residual activity [30]: 85%; residual activity [31]: 100%; residual activity [32]: 100%; residual activity [33]: 100%; residual activity [34]: 97%; residual activity [35]: 80%; residual activity [36]: 100%; residual activity [37]: 92%; residual activity [38]: 100%; residual activity [39]: 95%

# Reference: ChEMBL document CHEMBL4507277
